# Assay results: PubChem BioAssay AID212 (DTP/NCI, 2004)
# Several values for one entry are separate records, joined by “and”; a condition that tells them apart may be missing. Equal values may be shown once. Inconclusive results are not listed.
# Test system: BDF1 mice, colon carcinoma 38 sc, T/C %
# Assay: NCI In Vivo Anticancer Drug Screen. Data for tumor model Colon Carcinoma 38 (subcutaneous) in B6D2F1 (BDF1) mice
# Method: The antitumor activity of compounds was measured in mice bearing transplantable tumors. Survival or tumor size were measured and the results are expressed as the measurement made in the treated group (T) divided by the measurement made in the vehicle treated control group (C). The tumor model used in this assay is Colon Carcinoma 38 (subcutaneous) in B6D2F1 (BDF1) mice
# [1] = endpoint: median tumor weight (est.), dose: 50.0 mg/kg/injection, schedule: Q07DX002 (ip), vehicle: saline, higher = larger tumour
# [2] = endpoint: median tumor weight (est.), dose: 100.0 mg/kg/injection, schedule: Q07DX002 (ip), vehicle: saline, higher = larger tumour
compound,measurement,setting,value
CN=C(N)N/N=C(\C)c1ccc2c(c1)Cc1ccccc1-2,T/C,"endpoint: median tumor weight (est.), dose: 12.5 mg/kg/injection, schedule: Q07DX002 (ip), vehicle: saline with Tween-80, higher = larger tumour",95 % of control and 98 % of control
same,T/C,"endpoint: median tumor weight (est.), dose: 25.0 mg/kg/injection, schedule: Q07DX002 (ip), vehicle: saline with Tween-80, higher = larger tumour",63 % of control and 85 % of control
same,T/C,"endpoint: median tumor weight (est.), dose: 50.0 mg/kg/injection, schedule: Q07DX002 (ip), vehicle: saline with Tween-80, higher = larger tumour",83 % of control and 86 % of control
same,T/C,"endpoint: median tumor weight (est.), dose: 100.0 mg/kg/injection, schedule: Q07DX002 (ip), vehicle: saline with Tween-80, higher = larger tumour",81 % of control and 93 % of control
C=C(NC(=O)C(=C)NC(=O)c1csc(C2=NC3c4csc(n4)C4NC(=O)c5csc(n5)C(C(C)(O)C(C)O)NC(=O)C5CSC(=N5)/C(=C/C)NC(=O)C(C(C)O)NC(=O)c5csc(n5)C3(CC2)NC(=O)C(C)NC(=O)C(=C)NC(=O)C(C)NC(=O)C(C(C)CC)NC2C=Cc3c(C(C)O)cc(nc3C2O)C(=O)OC4C)n1)C(N)=O (stereo unspecified),T/C,"endpoint: median tumor weight (est.), dose: 12.5 mg/kg/injection, schedule: Q07DX002 (ip), vehicle: Klucel (hydroxypropylcellulose) (HPC), higher = larger tumour",70 % of control
same,T/C,"endpoint: median tumor weight (est.), dose: 50.0 mg/kg/injection, schedule: Q07DX002 (ip), vehicle: Klucel (hydroxypropylcellulose) (HPC), higher = larger tumour",106 % of control
same,T/C,"endpoint: median tumor weight (est.), dose: 100.0 mg/kg/injection, schedule: Q07DX002 (ip), vehicle: Klucel (hydroxypropylcellulose) (HPC), higher = larger tumour",106 % of control
same,T/C,"endpoint: median tumor weight (est.), dose: 200.0 mg/kg/injection, schedule: Q07DX002 (ip), vehicle: Klucel (hydroxypropylcellulose) (HPC), higher = larger tumour",110 % of control
same,T/C,"endpoint: median tumor weight (est.), dose: 400.0 mg/kg/injection, schedule: Q07DX002 (ip), vehicle: Klucel (hydroxypropylcellulose) (HPC), higher = larger tumour",119 % of control
same,T/C,"endpoint: median tumor weight (est.), dose: 400.0 mg/kg/injection, schedule: Q07DX003 (ip), vehicle: Klucel (hydroxypropylcellulose) (HPC), higher = larger tumour",119 % of control
O=CC(NC(=O)N(CCCl)N=O)C(O)C(O)C(O)CO (stereo unspecified),T/C,"endpoint: median tumor weight (est.), dose: 0.47 mg/kg/injection, schedule: Q07DX003 (ip), vehicle: saline, higher = larger tumour",102 % of control
same,T/C,"endpoint: median tumor weight (est.), dose: 0.94 mg/kg/injection, schedule: Q07DX003 (ip), vehicle: saline, higher = larger tumour",98 % of control
same,T/C,"endpoint: median tumor weight (est.), dose: 1.5 mg/kg/injection, schedule: Q07DX002 (ip), vehicle: saline, higher = larger tumour",105 % of control
same,T/C,"endpoint: median tumor weight (est.), dose: 3.75 mg/kg/injection, schedule: Q07DX003 (ip), vehicle: saline, higher = larger tumour",68 % of control
same,T/C,"endpoint: median tumor weight (est.), dose: 4.0 mg/kg/injection, schedule: Q07DX002 (ip), vehicle: saline, higher = larger tumour",92 % of control
same,T/C,"endpoint: median tumor weight (est.), dose: 6.0 mg/kg/injection, schedule: Q07DX003 (ip), vehicle: saline, higher = larger tumour",68 % of control
same,T/C,"endpoint: median tumor weight (est.), dose: 7.5 mg/kg/injection, schedule: Q07DX003 (ip), vehicle: saline, higher = larger tumour",68 % of control
same,T/C,"endpoint: median tumor weight (est.), dose: 8.0 mg/kg/injection, schedule: Q07DX002 (ip), vehicle: saline, higher = larger tumour",57 % of control
same,T/C,"endpoint: median tumor weight (est.), dose: 12.0 mg/kg/injection, schedule: Q07DX003 (ip), vehicle: saline, higher = larger tumour",82 % of control
same,T/C,"endpoint: median tumor weight (est.), dose: 15.0 mg/kg/injection, schedule: Q07DX003 (ip), vehicle: saline, higher = larger tumour",43 % of control
same,T/C,"endpoint: median tumor weight (est.), dose: 16.0 mg/kg/injection, schedule: Q07DX002 (ip), vehicle: saline, higher = larger tumour",43 % of control
same,T/C,"endpoint: median tumor weight (est.), dose: 24.0 mg/kg/injection, schedule: Q07DX003 (ip), vehicle: saline, higher = larger tumour",57 % of control
Nc1ncnc2c1ncn2C1OC(CO)C(O)C1O (stereo unspecified),T/C,"endpoint: median tumor weight (est.), dose: 12.5 mg/kg/injection, schedule: Q07DX002 (ip), vehicle: saline, higher = larger tumour",103 % of control
same,T/C,"endpoint: median tumor weight (est.), dose: 25.0 mg/kg/injection, schedule: Q07DX002 (ip), vehicle: saline, higher = larger tumour",115 % of control
same,T/C,"endpoint: median tumor weight (est.), dose: 25.0 mg/kg/injection, schedule: Q07DX003 (ip), vehicle: saline, higher = larger tumour",233 % of control
same,T/C,[1],85 % of control
same,T/C,"endpoint: median tumor weight (est.), dose: 50.0 mg/kg/injection, schedule: Q07DX003 (ip), vehicle: saline, higher = larger tumour",238 % of control
same,T/C,"endpoint: median tumor weight (est.), dose: 75.0 mg/kg/injection, schedule: Q07DX002 (ip), vehicle: saline, higher = larger tumour",80 % of control
same,T/C,[2],110 % of control
same,T/C,"endpoint: median tumor weight (est.), dose: 150.0 mg/kg/injection, schedule: Q07DX002 (ip), vehicle: saline, higher = larger tumour",97 % of control
same,T/C,"endpoint: median tumor weight (est.), dose: 300.0 mg/kg/injection, schedule: Q07DX002 (ip), vehicle: saline, higher = larger tumour",105 % of control
same,T/C,"endpoint: median tumor weight (est.), dose: 600.0 mg/kg/injection, schedule: Q07DX002 (ip), vehicle: saline, higher = larger tumour",116 % of control
O=C(CCCN1CCC(O)(c2cccc(C(F)(F)F)c2)CC1)c1ccc(F)cc1,T/C,"endpoint: median tumor weight (est.), dose: 6.25 mg/kg/injection, schedule: Q07DX003 (ip), vehicle: Klucel (hydroxypropylcellulose) (HPC), higher = larger tumour",78 % of control and 80 % of control
same,T/C,"endpoint: median tumor weight (est.), dose: 12.5 mg/kg/injection, schedule: Q07DX003 (ip), vehicle: Klucel (hydroxypropylcellulose) (HPC), higher = larger tumour",84 % of control and 95 % of control
same,T/C,"endpoint: median tumor weight (est.), dose: 25.0 mg/kg/injection, schedule: Q07DX003 (ip), vehicle: Klucel (hydroxypropylcellulose) (HPC), higher = larger tumour",113 % of control and 93 % of control
same,T/C,"endpoint: median tumor weight (est.), dose: 50.0 mg/kg/injection, schedule: Q07DX003 (ip), vehicle: Klucel (hydroxypropylcellulose) (HPC), higher = larger tumour",100 % of control
O=C1NC(=O)C2C3C=CC(C12)C1C2C(=O)NC(=O)C2C31 (stereo unspecified),T/C,"endpoint: median tumor weight (est.), dose: 400.0 mg/kg/injection, schedule: Q07DX002 (ip), vehicle: saline with Tween-80, higher = larger tumour",29 % of control and 50 % of control
C1OC1C1CO1 (stereo unspecified),T/C,"endpoint: median tumor weight (est.), dose: 10.0 mg/kg/injection, schedule: Q07DX002 (ip), vehicle: saline, higher = larger tumour",99 % of control and 107 % of control
same,T/C,"endpoint: median tumor weight (est.), dose: 20.0 mg/kg/injection, schedule: Q07DX002 (ip), vehicle: saline, higher = larger tumour",119 % of control and 120 % of control
same,T/C,"endpoint: median tumor weight (est.), dose: 40.0 mg/kg/injection, schedule: Q07DX002 (ip), vehicle: saline, higher = larger tumour",96 % of control
CC1CC(C)CC(C)C(O)/C(C#N)=C/C=C/CC(C2CCCC2C(=O)O)OC(=O)CC(O)C(C)C1 (stereo unspecified),T/C,"endpoint: median tumor weight (est.), dose: 0.13 mg/kg/injection, schedule: Q07DX003 (ip), vehicle: Klucel (hydroxypropylcellulose) (HPC), higher = larger tumour",84 % of control
same,T/C,"endpoint: median tumor weight (est.), dose: 0.25 mg/kg/injection, schedule: Q07DX003 (ip), vehicle: Klucel (hydroxypropylcellulose) (HPC), higher = larger tumour",80 % of control
same,T/C,"endpoint: median tumor weight (est.), dose: 0.5 mg/kg/injection, schedule: Q07DX003 (ip), vehicle: Klucel (hydroxypropylcellulose) (HPC), higher = larger tumour",113 % of control
same,T/C,"endpoint: median tumor weight (est.), dose: 1.0 mg/kg/injection, schedule: Q07DX002 (ip), vehicle: Klucel (hydroxypropylcellulose) (HPC), higher = larger tumour",92 % of control
same,T/C,"endpoint: median tumor weight (est.), dose: 1.0 mg/kg/injection, schedule: Q07DX003 (ip), vehicle: Klucel (hydroxypropylcellulose) (HPC), higher = larger tumour",93 % of control
same,T/C,"endpoint: median tumor weight (est.), dose: 2.0 mg/kg/injection, schedule: Q07DX003 (ip), vehicle: Klucel (hydroxypropylcellulose) (HPC), higher = larger tumour",69 % of control
same,T/C,"endpoint: median tumor weight (est.), dose: 4.0 mg/kg/injection, schedule: Q07DX002 (ip), vehicle: Klucel (hydroxypropylcellulose) (HPC), higher = larger tumour",106 % of control
same,T/C,"endpoint: median tumor weight (est.), dose: 4.0 mg/kg/injection, schedule: Q07DX003 (ip), vehicle: Klucel (hydroxypropylcellulose) (HPC), higher = larger tumour",88 % of control
same,T/C,"endpoint: median tumor weight (est.), dose: 8.0 mg/kg/injection, schedule: Q07DX002 (ip), vehicle: Klucel (hydroxypropylcellulose) (HPC), higher = larger tumour",75 % of control
NC(=O)c1c[se]c(C2OC(CO)C(O)C2O)n1 (stereo unspecified),T/C,"endpoint: median tumor weight (est.), dose: 25.0 mg/kg/injection, schedule: Q07DX002 (ip), vehicle: water, higher = larger tumour",56 % of control
same,T/C,[1],79 % of control
same,T/C,"endpoint: median tumor weight (est.), dose: 50.0 mg/kg/injection, schedule: Q07DX002 (ip), vehicle: water, higher = larger tumour",74 % of control
same,T/C,[2],89 % of control
same,T/C,"endpoint: median tumor weight (est.), dose: 100.0 mg/kg/injection, schedule: Q07DX002 (ip), vehicle: water, higher = larger tumour",44 % of control
same,T/C,"endpoint: median tumor weight (est.), dose: 200.0 mg/kg/injection, schedule: Q07DX002 (ip), vehicle: saline, higher = larger tumour",73 % of control
same,T/C,"endpoint: median tumor weight (est.), dose: 200.0 mg/kg/injection, schedule: Q07DX002 (ip), vehicle: water, higher = larger tumour",42 % of control
same,T/C,"endpoint: median tumor weight (est.), dose: 400.0 mg/kg/injection, schedule: Q07DX002 (ip), vehicle: saline, higher = larger tumour",74 % of control
same,T/C,"endpoint: median tumor weight (est.), dose: 400.0 mg/kg/injection, schedule: Q07DX002 (ip), vehicle: water, higher = larger tumour",40 % of control
same,T/C,"endpoint: median tumor weight (est.), dose: 800.0 mg/kg/injection, schedule: Q07DX002 (ip), vehicle: saline, higher = larger tumour",90 % of control
O=c1[nH]cc(F)c(=O)[nH]1,T/C,"endpoint: median survival time, dose: 16.2 mg/kg/injection, schedule: Q04DX002 (ip), vehicle: saline, higher = longer survival",119 % of control
same,T/C,"endpoint: median survival time, dose: 21.1 mg/kg/injection, schedule: Q01DX010 (ip), vehicle: saline, higher = longer survival",199 % of control
same,T/C,"endpoint: median survival time, dose: 34.0 mg/kg/injection, schedule: Q01DX010 (ip), vehicle: saline, higher = longer survival",199 % of control
same,T/C,"endpoint: median survival time, dose: 36.0 mg/kg/injection, schedule: Q04DX003 (ip), vehicle: saline, higher = longer survival",119 % of control
same,T/C,"endpoint: median survival time, dose: 42.0 mg/kg/injection, schedule: Q04DX004 (ip), vehicle: saline, higher = longer survival",122 % of control
same,T/C,"endpoint: median survival time, dose: 60.0 mg/kg/injection, schedule: Q04DX004 (ip), vehicle: alkali diluted with saline, higher = longer survival",197 % of control and 204 % of control
same,T/C,"endpoint: median survival time, dose: 73.0 mg/kg/injection, schedule: Q07DX003 (iv), vehicle: saline, higher = longer survival",124 % of control
same,T/C,"endpoint: median survival time, dose: 75.0 mg/kg/injection, schedule: Q04DX002 (ip), vehicle: saline, higher = longer survival",233 % of control
same,T/C,"endpoint: median survival time, dose: 100.0 mg/kg/injection, schedule: Q04DX004 (ip), vehicle: alkali diluted with saline, higher = longer survival",72 % of control
same,T/C,"endpoint: median survival time, dose: 167.0 mg/kg/injection, schedule: Q04DX004 (ip), vehicle: alkali diluted with saline, higher = longer survival",57 % of control
same,T/C,"endpoint: median tumor weight (est.), dose: 21.6 mg/kg/injection, schedule: Q04DX004 (ip), vehicle: saline, higher = larger tumour",65 % of control
same,T/C,"endpoint: median tumor weight (est.), dose: 36.0 mg/kg/injection, schedule: Q04DX004 (ip), vehicle: saline, higher = larger tumour",38 % of control
